Measured values from patent EP4563146A1 (IRBM S.P.A., priority 2023, dated 2025).
Read-outs that look alike come from different tables or passages of the source.

Key:
ZIKV replicon = assay: ZIKV replication inhibition assay (NanoLuc replicon in Vero cells); conditions: Zika virus, Vero, 72 h
[1] = target: T1, West Nile Virus (WNV) NS2B-NS3 protease (West Nile virus, UniProt Q9Q6P4); assay: WNV protease inhibition assay; type: biochemical; conditions: Table 4; letter codes for IC50
T1 construct: NS2B1423-1470); purchased R&D 2907-SE-020
From the text: WNV protease inhibition assay

[2] = read-out: ZIKA Cell_Nanoluc, Vero cells with stable ZIKV replicon, 72 h, Nano-Glo readout

T1 sequence (Q9Q6P4 1423-1470): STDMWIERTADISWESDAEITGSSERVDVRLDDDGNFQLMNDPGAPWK
T1 sequence (Q9Q6P4 1506-1689): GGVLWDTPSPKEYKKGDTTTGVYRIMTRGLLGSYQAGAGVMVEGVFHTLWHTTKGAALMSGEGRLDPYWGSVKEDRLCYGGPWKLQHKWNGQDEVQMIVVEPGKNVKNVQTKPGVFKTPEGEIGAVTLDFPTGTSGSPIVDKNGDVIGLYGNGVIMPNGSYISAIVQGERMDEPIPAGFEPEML

Row | Structure (SMILES) | EC50 (ZIKV replicon; [2]) | IC50 [1] | EC50 (ZIKV replicon; read-out: ZIKA Cell_Nanoluc)
1 | O=C([N-]c1c[n+](CC23CC(c4cncnc4)(C2)C3)no1)Nc1cccc(C(F)(F)F)c1 [Example 183, (3-((3-(Pyrimidin-5-yl)bicyclo[1.1.1]pentan-1-yl)methyl)-1,2,3-oxadiazol-3-ium-5-yl)((3-(trifluoromethyl)phenyl)carbamoyl)amide] | 100 to 1000 nM | 100 to 1000 nM | –
2 | Cc1ncnc(C)c1-c1ccc(C[n+]2cc([N-]C(=O)Nc3cccc(C(F)(F)F)c3)on2)nn1 [Example 184, (3-((6-(4,6-Dimethylpyrimidin-5-yl)pyridazin-3-yl)methyl)-1,2,3-oxadiazol-3-ium-5-yl)((3-(trifluoromethyl)phenyl)carbamoyl)amide] | 100 to 1000 nM | 100 to 1000 nM | –
3 | O=C([N-]c1c[n+](CC23CCC(c4cncnc4)(CC2)C3)no1)Nc1ccnc(C(F)(F)F)c1 [Example 185, (3-((4-(Pyrimidin-5-yl)bicyclo[2.2.1]heptan-1-yl)methyl)-1,2,3-oxadiazol-3-ium-5-yl)((2-(trifluoromethyl)pyridin-4-yl)carbamoyl)amide] | 1000 to 20000 nM | 100 to 1000 nM | –
4 | O=C([N-]c1c[n+](C[C@H]2CC[C@H](c3cncnc3)CC2)no1)Nc1cccc(C(F)(F)F)c1 [Example 186, (3-(((1R,4R)-4-(Pyrimidin-5-yl)cyclohexyl)methyl)-1,2,3-oxadiazol-3-ium-5-yl)((3-(trifluoromethyl)phenyl)carbamoyl)amide] | – | 100 to 1000 nM | 1000 to 20000 nM
5 | O=C([N-]c1c[n+](C[C@H]2CC[C@H](c3cncnc3)CC2)no1)Nc1ccnc(C(F)(F)F)c1 [Example 187, (3-(((1R,4R)-4-(Pyrimidin-5-yl)cyclohexyl)-methyl)-1,2,3-oxadiazol-3-ium-5-yl)((2-(trifluoromethyl)pyridin-4-yl)carbamoyl)amide] | – | 100 to 1000 nM | 100 to 1000 nM
6 | Cc1nnccc1-c1ccc(C[n+]2cc([N-]C(=O)Nc3ccnc(C(F)(F)F)c3)on2)cc1 [Example 188, (3-(4-(3-Methylpyridazin-4-yl)benzyl)-1,2,3-oxadiazol-3-ium-5-yl)((2-(trifluoromethyl)-pyridin-4-yl)carbamoyl)amide] | < 100 nM | < 100 nM | –
7 | CN(C)C[C@H]1CC[C@H]([n+]2cc([N-]C(=O)Nc3cc(NC(=O)Cc4ccccc4O)cc(C(F)(F)F)c3)on2)CC1 [Example 191, (3-((1R,4R)-4-((Dimethylamino)methyl)-cyclohexyl)-1,2,3-oxadiazol-3-ium-5-yl)((3-(2-(2-hydroxyphenyl)acetamido)-5-(trifluoromethyl)-phenyl)carbamoyl)amide] | – | 1000 to 20000 nM | < 100 nM
8 | CN(C)C[C@H]1CC[C@H]([n+]2cc([N-]C(=O)Nc3cc(NC(=O)Cc4ccccc4Cl)nc(C(F)(F)F)c3)on2)CC1 [Example 193, ((2-(2-(2-Chlorophenyl)acetamido)-6-(trifluoromethyl)pyridin-4-yl)carbamoyl)(3-((1R,4R)-4-((dimethylamino)methyl)-cyclohexyl)-1,2,3-oxadiazol-3-ium-5-yl)amide] | – | 1000 to 20000 nM | 100 to 1000 nM
9 | CN(C)C[C@H]1CC[C@H]([n+]2cc([N-]C(=O)Nc3cc(NC(=O)C(F)c4ccccc4F)cc(C(F)(F)F)c3)on2)CC1 (stereo partly drawn) [Example 194, (3-((1R,4R)-4-((Dimethylamino)methyl)-cyclohexyl)-1,2,3-oxadiazol-3-ium-5-yl)((3-(2-fluoro-2-(2-fluorophenyl)acetamido)-5-(trifluoromethyl)phenyl)carbamoyl)amide] | – | 100 to 1000 nM | < 100 nM
10 | CN(C)C[C@H]1CC[C@H]([n+]2cc([N-]C(=O)Nc3cc(NC(=O)C4Cc5ccccc54)cc(C(F)(F)F)c3)on2)CC1 (some centres unmarked) [Example 195] | – | 1000 to 20000 nM | 100 to 1000 nM
11 | CN(C)C[C@H]1CC[C@H]([n+]2cc([N-]C(=O)Nc3cc(NC(=O)Cc4cccc(O)n4)cc(C(F)(F)F)c3)on2)CC1 [Example 196, (3-((1R,4R)-4-((Dimethylamino)methyl)-cyclohexyl)-1,2,3-oxadiazol-3-ium-5-yl)((3-(2-(6-hydroxypyridin-2-yl)acetamido)-5-(trifluoromethyl)phenyl)carbamoyl)amide] | – | 1000 to 20000 nM | 100 to 1000 nM
12 | Cc1noc(C)c1CC(=O)Nc1cc(NC(=O)[N-]c2c[n+]([C@H]3CC[C@H](CN(C)C)CC3)no2)cc(C(F)(F)F)c1 [Example 197, (3-((1R,4R)-4-((Dimethylamino)methyl)-cyclohexyl)-1,2,3-oxadiazol-3-ium-5-yl)((3-(2-(3,5-dimethylisoxazol-4-yl)acetamido)-5-(trifluoromethyl)phenyl)carbamoyl)amide] | – | 1000 to 20000 nM | < 100 nM
13 | CN(C)C[C@H]1CC[C@H]([n+]2cc([N-]C(=O)Nc3cc(NC(=O)Cc4c(F)cccc4Cl)cc(C(F)(F)F)c3)on2)CC1 [Example 198, ((3-(2-(2-Chloro-6-fluorophenyl)acetamido)-5-(trifluoromethyl)phenyl)carbamoyl)(3-((1R,4R)-4-((dimethylamino)methyl)cyclohexyl)-1,2,3-oxadiazol-3-ium-5-yl)amide] | – | 1000 to 20000 nM | < 100 nM
14 | CN(C)C[C@H]1CC[C@H]([n+]2cc([N-]C(=O)Nc3cc(NC(=O)Cc4c(F)cccc4F)cc(C(F)(F)F)c3)on2)CC1 [Example 199, ((3-(2-(2,6-Difluorophenyl)acetamido)-5-(trifluoromethyl)phenyl)carbamoyl)(3-((1R,4R)-4-((dimethylamino)methyl)cyclohexyl)-1,2,3-oxadiazol-3-ium-5-yl)amide] | – | 100 to 1000 nM | < 100 nM
15 | Cc1ccccc1CC(=O)Nc1cc(NC(=O)[N-]c2c[n+]([C@@H]3CCC[C@H](N(C)C)C3)no2)cc(C(F)(F)F)c1 [Example 202, (3-((1R,3S)-3-(Dimethylamino)cyclohexyl)-1,2,3-oxadiazol-3-ium-5-yl)((3-(2-(o-tolyl)acetamido)-5-(trifluoromethyl)phenyl)-carbamoyl)amide] | 1000 to 20000 nM | 100 to 1000 nM | –
16 | Cc1ccccc1CC(=O)Nc1cc(NC(=O)[N-]c2c[n+]([C@@H]3CCCC[C@H]3O)no2)cc(C(F)(F)F)c1 [Example 203, (3-((1R,2R)-2-Hydroxycyclohexyl)-1,2,3-oxadiazol-3-ium-5-yl)((3-(2-(o-tolyl)acetamido)-5-(trifluoromethyl)phenyl)carbamoyl)amide] | 100 to 1000 nM | 100 to 1000 nM | –
17 | CN(C)[C@H]1CCC[C@@H]([n+]2cc([N-]C(=O)Nc3ccnc(C(F)(F)F)c3)on2)C1 [Example 204, (3-((1R,3S)-3-(Dimethylamino)cyclohexyl)-1,2,3-oxadiazol-3-ium-5-yl)((2-(trifluoromethyl)-pyridin-4-yl)carbamoyl)amide] | 1000 to 20000 nM | 100 to 1000 nM | –
18 | CC(C(=O)Nc1cc(NC(=O)[N-]c2c[n+]([C@H]3CC[C@H](CN(C)C)CC3)no2)cc(C(F)(F)F)c1)c1ccccc1Cl (stereo partly drawn) [Example 205, ((3-(2-(2-Chlorophenyl)propanamido)-5-(trifluoromethyl)phenyl)carbamoyl)(3-((1R,4R)-4-((dimethylamino)methyl)cyclohexyl)-1,2,3-oxadiazol-3-ium-5-yl)amide] | – | 100 to 1000 nM | 1000 to 20000 nM
19 | Cc1ccccc1CC(=O)Nc1cc(NC(=O)[N-]c2c[n+]([C@H]3CC[C@H](C(C)(C)O)CC3)no2)cc(C(F)(F)F)c1 [Example 206, (3-((1R,4R)-4-(2-Hydroxypropan-2-yl)cyclohexyl)-1,2,3-oxadiazol-3-ium-5-yl)((3-(2-(o-tolyl)acetamido)-5-(trifluoromethyl)phenyl)-carbamoyl)amide] | – | < 100 nM | 100 to 1000 nM
20 | Cc1ncnc(C)c1-c1ccc(C[n+]2cc([N-]C(=O)Nc3ccc(C#N)c(C(F)(F)F)c3)on2)cc1 [Example 207, ((4-Cyano-3-(trifluoromethyl)phenyl)-carbamoyl)(3-(4-(4,6-dimethylpyrimidin-5-yl)benzyl)-1,2,3-oxadiazol-3-ium-5-yl)amide] | 100 to 1000 nM | 100 to 1000 nM | –
21 | CN(C)C[C@H]1CC[C@H]([n+]2cc([N-]C(=O)Nc3cc(NC(=O)C(C)(C)c4ccccc4)cc(C(F)(F)F)c3)on2)CC1 [Example 208, (3-((1R,4R)-4-((Dimethylamino)methyl)-cyclohexyl)-1,2,3-oxadiazol-3-ium-5-yl)((3-(2-methyl-2-phenylpropanamido)-5-(trifluoromethyl)phenyl)carbamoyl)amide] | – | 100 to 1000 nM | 1000 to 20000 nM
22 | COc1cc(NC(=O)[N-]c2c[n+](Cc3ccc(-c4c(C)ncnc4C)cc3)no2)ccn1 [Example 209, (3-(4-(4,6-Dimethylpyrimidin-5-yl)benzyl)-1,2,3-oxadiazol-3-ium-5-yl)((2-methoxypyridin-4-yl)carbamoyl)amide] | 1000 to 20000 nM | 100 to 1000 nM | –
23 | Cc1nc(-c2ccc(C[n+]3cc([N-]C(=O)Nc4ccnc(C(F)(F)F)c4)on3)cc2)cs1 [Example 210, (3-(4-(2-Methylthiazol-4-yl)benzyl)-1,2,3-oxadiazol-3-ium-5-yl)((2-(trifluoromethyl)pyridin-4-yl)carbamoyl)amide] | 1000 to 20000 nM | 100 to 1000 nM | –
24 | Cc1nsc(C)c1-c1ccc(C[n+]2cc([N-]C(=O)Nc3ccnc(C(F)(F)F)c3)on2)cc1 [Example 211, (3-(4-(3,5-Dimethylisothiazol-4-yl)benzyl)-1,2,3-oxadiazol-3-ium-5-yl)((2-(trifluoromethyl)-pyridin-4-yl)carbamoyl)amide] | 1000 to 20000 nM | 100 to 1000 nM | –
25 | Cc1cccc(CC(=O)Nc2cc(NC(=O)[N-]c3c[n+]([C@H]4CC[C@H](CN(C)C)CC4)no3)cc(C(F)(F)F)c2)c1C [Example 212, (3-((1R,4R)-4-((Dimethylamino)methyl)-cyclohexyl)-1,2,3-oxadiazol-3-ium-5-yl)((3-(2-(2,3-dimethylphenyl)acetamido)-5-(trifluoromethyl)phenyl)carbamoyl)amide] | – | 100 to 1000 nM | 1000 to 20000 nM
